These results are taken from US5854388A, “Angiotensin IV peptides and receptor” (Washington State University Research Foundation, priority 1994, dated 1998).

Read-outs that look alike come from different tables or passages of the source.

For data set [1] the following is noted: arterial and venous blood in man; cited from earlier work.
In data set [2] the target is T1, AT4 receptor (Bos taurus, UniProt F1N1Q8).
T1 sequence (F1N1Q8 1-1022): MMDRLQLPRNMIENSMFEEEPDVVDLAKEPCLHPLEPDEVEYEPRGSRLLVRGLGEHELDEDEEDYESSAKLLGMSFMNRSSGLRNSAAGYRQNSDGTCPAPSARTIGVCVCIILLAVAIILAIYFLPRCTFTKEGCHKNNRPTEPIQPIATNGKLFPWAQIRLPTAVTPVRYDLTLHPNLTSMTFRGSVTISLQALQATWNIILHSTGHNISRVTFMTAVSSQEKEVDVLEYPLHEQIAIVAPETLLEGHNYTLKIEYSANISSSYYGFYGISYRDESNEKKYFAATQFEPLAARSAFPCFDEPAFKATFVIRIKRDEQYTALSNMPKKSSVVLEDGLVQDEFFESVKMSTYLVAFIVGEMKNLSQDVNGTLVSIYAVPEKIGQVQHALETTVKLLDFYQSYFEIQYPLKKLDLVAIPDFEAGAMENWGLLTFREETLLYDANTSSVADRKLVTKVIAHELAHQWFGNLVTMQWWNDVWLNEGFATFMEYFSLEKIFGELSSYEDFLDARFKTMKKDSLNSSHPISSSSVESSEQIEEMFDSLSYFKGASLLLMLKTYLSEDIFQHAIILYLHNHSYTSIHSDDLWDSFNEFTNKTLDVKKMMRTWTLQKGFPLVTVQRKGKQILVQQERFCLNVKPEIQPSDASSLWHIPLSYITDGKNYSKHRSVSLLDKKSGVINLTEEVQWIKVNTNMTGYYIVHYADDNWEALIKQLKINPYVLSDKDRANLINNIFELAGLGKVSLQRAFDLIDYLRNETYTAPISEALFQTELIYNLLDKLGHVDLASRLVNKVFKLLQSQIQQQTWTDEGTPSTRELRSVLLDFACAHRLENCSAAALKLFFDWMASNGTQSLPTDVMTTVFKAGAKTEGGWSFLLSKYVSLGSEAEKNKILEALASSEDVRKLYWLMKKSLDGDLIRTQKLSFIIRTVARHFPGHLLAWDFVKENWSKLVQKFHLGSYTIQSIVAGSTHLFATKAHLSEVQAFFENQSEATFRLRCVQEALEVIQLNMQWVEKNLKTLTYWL
Nature of the data set: 125I-AIV binding and competition, solubilized bovine adrenal cortical receptor.

Data set [3] addresses T1, AT4 receptor. Description: 125I-AIV binding and competition, bovine adrenal cortical membranes.
A short description of data set [4]: Stability of angiotensin peptides in binding buffer (reverse phase HPLC). Type of data set: physicochemical. The note with it: 4 h at 37° C. The protocol: Binding studies were carried out in a buffer (below) containing an extensive cocktail of inhibitors that was designed to minimize metabolism of both the receptor and the test ligand, i.e., the buffer contained 5 mM EDTA, 0.2% BSA, […] Bestatin, 50 μM Plummer's inhibitor, and 100 μM PMSF.

Data set [5] addresses T1, AT4 receptor. Description: 125I-AIV binding and competition, coronary venular endothelial cell (CVEC) membranes. The arrangement: species or system bovine. Conditions: for Ki: read-out: Ki.
For data set [6] the following is noted: in vivo; cited from earlier work.
The target in data set [7] is T2, AT4 receptor (Oryctolagus cuniculus, UniProt G1SFU4).
T2 sequence (G1SFU4 1-1025): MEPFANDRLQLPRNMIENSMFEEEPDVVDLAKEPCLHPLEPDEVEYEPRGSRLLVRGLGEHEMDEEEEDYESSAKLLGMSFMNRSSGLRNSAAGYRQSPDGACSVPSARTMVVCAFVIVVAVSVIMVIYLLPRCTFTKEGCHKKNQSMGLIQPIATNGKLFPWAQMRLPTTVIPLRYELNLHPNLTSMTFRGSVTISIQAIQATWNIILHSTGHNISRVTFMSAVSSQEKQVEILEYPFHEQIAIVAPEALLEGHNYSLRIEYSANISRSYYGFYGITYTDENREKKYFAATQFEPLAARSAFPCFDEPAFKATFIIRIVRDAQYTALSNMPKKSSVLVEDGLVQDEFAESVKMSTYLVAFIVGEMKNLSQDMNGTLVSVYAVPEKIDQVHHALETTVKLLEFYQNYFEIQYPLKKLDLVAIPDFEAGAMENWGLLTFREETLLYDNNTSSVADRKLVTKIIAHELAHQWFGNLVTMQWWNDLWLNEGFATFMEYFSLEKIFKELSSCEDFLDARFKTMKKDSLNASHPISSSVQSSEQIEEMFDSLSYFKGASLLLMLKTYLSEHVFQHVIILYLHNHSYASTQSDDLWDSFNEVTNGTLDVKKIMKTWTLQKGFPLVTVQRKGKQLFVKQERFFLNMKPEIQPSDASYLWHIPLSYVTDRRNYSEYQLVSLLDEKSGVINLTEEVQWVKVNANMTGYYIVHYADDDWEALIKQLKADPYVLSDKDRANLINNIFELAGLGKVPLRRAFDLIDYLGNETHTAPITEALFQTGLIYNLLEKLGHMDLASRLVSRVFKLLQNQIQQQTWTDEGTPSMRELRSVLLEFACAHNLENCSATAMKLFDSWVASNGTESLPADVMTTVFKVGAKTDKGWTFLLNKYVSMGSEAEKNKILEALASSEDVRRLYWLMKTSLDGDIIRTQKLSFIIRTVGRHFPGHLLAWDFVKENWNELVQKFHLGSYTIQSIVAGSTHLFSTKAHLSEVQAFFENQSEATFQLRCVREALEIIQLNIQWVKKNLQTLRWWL
Description: 125I-AIV binding and competition, rabbit heart P2 membranes. The note with it: competition of 0.5 nM 125I-AIV, 120 min, 37° C.

For data set [8], the target named is T3, AT1 receptor (AII receptor) (Bos taurus, UniProt P25104).
T3 construct: from tissue; host or cells: bovine adrenal cortex membranes
T3 sequence (P25104 1-359): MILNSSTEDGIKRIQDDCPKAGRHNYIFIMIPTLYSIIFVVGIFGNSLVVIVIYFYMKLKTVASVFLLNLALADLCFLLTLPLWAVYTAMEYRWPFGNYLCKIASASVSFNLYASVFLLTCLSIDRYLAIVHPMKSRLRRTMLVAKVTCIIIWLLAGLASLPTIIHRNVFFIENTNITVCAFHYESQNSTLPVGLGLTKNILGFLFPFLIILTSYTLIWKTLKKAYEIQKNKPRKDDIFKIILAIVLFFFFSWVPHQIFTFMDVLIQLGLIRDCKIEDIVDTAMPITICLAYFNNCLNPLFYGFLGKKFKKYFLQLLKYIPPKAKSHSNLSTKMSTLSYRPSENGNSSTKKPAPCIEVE
It is filed as binding, bovine. The note with it: for Bmax: equilibrium binding.

Data set [9] addresses T4, AT4 receptor (Cavia porcellus, UniProt H0VNM7).
T4 sequence (H0VNM7 1-1025): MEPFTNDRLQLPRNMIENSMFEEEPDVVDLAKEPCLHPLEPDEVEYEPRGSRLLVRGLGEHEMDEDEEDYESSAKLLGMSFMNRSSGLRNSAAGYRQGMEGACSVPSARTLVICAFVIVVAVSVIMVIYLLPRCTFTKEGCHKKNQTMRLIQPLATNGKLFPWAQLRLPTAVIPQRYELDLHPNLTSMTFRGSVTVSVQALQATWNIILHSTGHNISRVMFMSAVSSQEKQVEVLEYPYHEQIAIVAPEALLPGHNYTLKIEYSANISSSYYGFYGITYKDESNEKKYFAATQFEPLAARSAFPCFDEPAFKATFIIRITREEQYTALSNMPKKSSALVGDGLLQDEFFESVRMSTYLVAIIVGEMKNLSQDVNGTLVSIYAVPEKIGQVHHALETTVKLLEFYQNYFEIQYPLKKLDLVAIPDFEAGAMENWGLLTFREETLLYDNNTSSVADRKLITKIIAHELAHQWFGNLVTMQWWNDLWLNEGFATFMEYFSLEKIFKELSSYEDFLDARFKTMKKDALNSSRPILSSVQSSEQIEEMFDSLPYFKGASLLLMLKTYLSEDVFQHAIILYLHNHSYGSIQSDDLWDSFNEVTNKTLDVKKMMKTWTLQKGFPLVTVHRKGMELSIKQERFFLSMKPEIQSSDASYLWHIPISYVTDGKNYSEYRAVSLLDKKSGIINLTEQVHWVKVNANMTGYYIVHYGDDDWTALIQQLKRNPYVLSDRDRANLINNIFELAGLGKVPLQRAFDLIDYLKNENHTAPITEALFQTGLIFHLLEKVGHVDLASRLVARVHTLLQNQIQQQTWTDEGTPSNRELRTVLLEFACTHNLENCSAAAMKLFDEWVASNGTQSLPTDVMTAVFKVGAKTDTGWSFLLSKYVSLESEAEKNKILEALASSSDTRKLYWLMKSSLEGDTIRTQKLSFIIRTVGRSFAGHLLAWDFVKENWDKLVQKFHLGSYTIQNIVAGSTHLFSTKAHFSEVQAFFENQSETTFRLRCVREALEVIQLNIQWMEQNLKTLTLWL
Description: 125I-AIV binding and competition, guinea pig hippocampus membranes. The note with it: competition of 0.6 nM 125I-AIV.

The test system of a further data set is rat kidney. Nature of the data set: Renal cortical blood flow (laser doppler) and arterial pressure after infusion into the renal artery. It is filed as in vivo.
Setting [10] is: read-out: 125I-AIV Binding (Ki), competition.

As for `CC[C@H](C)[C@H](NC(=O)[C@H](Cc1ccc(O)cc1)NC(=O)[C@@H](NC(=O)[C@@H](N)CCCNC(=N)N)C(C)C)C(=O)N[C@@H](Cc1c[nH]cn1)C(=O)N1CCC[C@H]1C(=O)N[C@@H](Cc1ccccc1)C(=O)O` [AIII, Arg1 Val2 Tyr3 Ile4 His5 Pro6 Phe7, reference compound], the half-lives in data set [1] is 2.0 min. Further, the “fold less active than AIV ligand” value at AT4 receptor [2] is “approximately 29 fold”; at AT4 receptor [3] (density-gradient-purified heat-treated membranes), “about 52 fold”. At AT4 receptor [2], the “times less effective than AIV in competing binding” value was “approximately 100 times”. Further, the Ki on AT4 receptor [3] (density-gradient-purified heat-treated membranes, read-out: apparent affinity (Ki)) is 29.3 nM; at AT4 receptor [3] (setting [10]) it was more than 14.5 nM; on AT4 receptor [5] (competition of 0.5 nM 125I-AIV), 23.3 ± 3.4 nM. The “hydrolysis in binding buffer” value in data set [4] was “less than 10%”. The “metabolized during transit through the kidney” value in data set [6] is listed as 89%.
For “Asp1 Arg2 Val3 Tyr4 Ile5 His6 Pro7 Phe8His9 Leu10 (DRVYIHPFHL) [AI]”, the “hydrolysis in binding buffer” value in [4] is given as “less than 10%”. In [6], the “metabolized during transit through the kidney” value is 72-76%.
In the case of CGP 42112A, the Ki at AT4 receptor [7] is more than 1000 nM; in data set [8] (competition), more than 100000 nM; on AT4 receptor [3] (setting [10]) it was more than 100000 nM; at AT4 receptor [5] (unit inferred), more than 100000 nM; on AT4 receptor [9], more than 100000 nM.
Usually Kd stands for a measure of binding affinity in units of concentration. As to SRVYIHPI [Sar1, Ile8 -AII], the Ki with AT4 receptor [7] was more than 1000 nM; with AT4 receptor [3] (setting [10]) it was more than 1000 nM; with AT4 receptor [5] (competition of 0.5 nM 125I-AIV), 261 ± 89.1 nM; with AT4 receptor [9], more than 1000 nM. Further, in data set [8], the “Hill Coeff.” value is 1.00 ± .03. For the same molecule, the Bmax in data set [8] (listed as 125I Sar1, Ile8 -Ang II) was 1.03 ± .26 pmol/mg prot; in data set [8] (listed as 125I-Sar1,Ile8 -AII), 1.03±0.26 pmol/mg prot. Also, the Kd in data set [8] (read-out: Kd (calculated from kinetic constants)) was 0.225 nM. For the same molecule, the “average change in AIV-induced blood flow with preinfusion” value in the data set on rat kidney (1 nmol/min, 10 min preinfusion) was less than 3%. Moreover, in the data set with rat kidney (rat, in vivo), the “effect of preinfusion on blood flow response to another ligand” value is “completely blocked the AII effect while having no effect on AIV”. Moreover, the “increase in Ki (decrease in affinity) compared with AIV” value in the data set with AT4 receptor [5] was 200 fold.
